Experimental data from US8703720B2, “Galactoside inhibitors of galectins” (Galecto Biotech AB, priority 2009, dated 2014).

Key:
galectin-3 = galectin-3 (Homo sapiens (Human), UniProt P17931); test: Fluorescence polarization-based galectin-3 inhibition assay; format: binding; settings: calculated from test by fluorescence polarization at the tested conc.
Description: (§1) The known galectin inhibitors galactose and N-acetyllactosamine methyl glycosides were included as reference compounds.
(§2) Identification of the substances was made by HRMS (Micromass Q-tof micro) and NMR (Bruker Ultrashield 400 plus, 400 MHz). Chemical shifts are reported downfield from Me4Si using residual CHD2Cl (7.26 ppm) or CHD2OD (3.35 ppm) as reference. Chemical shifts and coupling constants were obtained from ^1H-NMR and proton resonances were assigned from COSY experiments. Purification was made by RF-HPLC (Beckman, system gold) or flash chromatography, using silica gel (Davisil 35-70 μm, 60 Å). Reactions were followed by TLC (Aluminum sheet, silica gel 60 F254) observed by UV light, H2SO4(aq) or a iso-vanillin/H2SO4/EtOH solution. THF and Et2O were dried over sodium/benzophenone and distilled. CH2Cl2 was dried by molecular sieves (4 Å, 1.6 mm). Other solvents and reagents were commercially available and used without further purifications. Fluorescence polarization experiments were performed on a PolarStar instrument (BMG, Offenburg; Germany). Evaluation of 7, 15-19, and 22 as inhibitors of galectins was performed by use of fluorescence polarization as described in the literature (Sörme et al., 2003a, 2004).

galectin-1 = galectin-1 (Homo sapiens (Human), UniProt P09382); test: Fluorescence polarization-based galectin-1 inhibition assay; format: binding; settings: calculated from test by fluorescence polarization at the tested conc.
Description: as §1, §2

galectins = settings: all galectins, cited from earlier work

Chain of galectin-3 (P17931 whole entry): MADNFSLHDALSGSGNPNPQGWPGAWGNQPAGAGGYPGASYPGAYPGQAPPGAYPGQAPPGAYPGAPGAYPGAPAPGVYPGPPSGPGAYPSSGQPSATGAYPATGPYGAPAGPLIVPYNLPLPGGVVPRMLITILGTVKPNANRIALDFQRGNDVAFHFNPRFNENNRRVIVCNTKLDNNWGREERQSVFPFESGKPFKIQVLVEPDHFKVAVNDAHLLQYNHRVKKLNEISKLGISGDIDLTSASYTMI
Chain of galectin-1 (P09382 whole entry, species assumed): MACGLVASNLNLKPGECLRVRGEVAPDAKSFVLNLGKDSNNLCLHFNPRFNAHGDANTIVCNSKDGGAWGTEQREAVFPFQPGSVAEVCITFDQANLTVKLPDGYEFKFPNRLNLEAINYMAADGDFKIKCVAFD

Kd (galectin-3) | Kd (galectin-1) | Structure (SMILES) | affinity relative to lactose (galectins; compared with lactose) | Kd (galectins)
0.43 µM |  | CCCNC(=O)c1cn([C@H]2[C@@H](O)[C@@H](CO)O[C@@H](O[C@@H]3CCC[C@H](n4cc(C(=O)NCCC)nn4)[C@H]3O)[C@@H]2O)nn1 [Compound 7, ((1R,2R,3S)-2-hydroxy-3-(4-(N-(1-propyl)-carbamoyl)-1H-1,2,3-triazol-1-yl)cyclohexyl) 3-deoxy-(3-(4-(N-(1-propyl)-carbamoyl)-1H-1,2,3-triazol-1-yl))-β-D-galactopyranoside] |  | 
0.23 µM | 1.9 µM | OC[C@H]1O[C@@H](S[C@@H]2CCC[C@H](n3cc(-c4ccccc4F)nn3)[C@H]2O)[C@H](O)[C@@H](n2cc(-c3ccccc3F)nn2)[C@H]1O [Compound 15, ((1R,2R,3S)-2-hydroxy-3-(4-(2-fluorophenyl)-1H-1,2,3-triazol-1-yl)-cyclohexyl) 3-deoxy-3-(4-(2-fluorophenyl)-1H-1,2,3-triazol-1-yl)-1-thio-β-D-galactopyranoside] |  | 
 | 1.5 µM | OC[C@H]1O[C@@H](S[C@@H]2CCC[C@H](n3cc(-c4cccc(F)c4)nn3)[C@H]2O)[C@H](O)[C@@H](n2cc(-c3cccc(F)c3)nn2)[C@H]1O [Compound 16, ((1R,2R,3S)-2-hydroxy-3-(4-(3-fluorophenyl)-1H-1,2,3-triazol-1-yl)-cyclohexyl) 3-deoxy-3-(4-(3-fluorophenyl)-1H-1,2,3-triazol-1-yl)-1-thio-β-D-galactopyranoside] |  | 
0.21 µM | 1.2 µM | OC[C@H]1O[C@@H](S[C@@H]2CCC[C@H](n3cc(-c4ccc(F)cc4)nn3)[C@H]2O)[C@H](O)[C@@H](n2cc(-c3ccc(F)cc3)nn2)[C@H]1O [Compound 17, ((1R,2R,3S)-2-hydroxy-3-(4-(4-fluorophenyl)-1H-1,2,3-triazol-1-yl)-cyclohexyl) 3-deoxy-3-(4-(4-fluorophenyl)-1H-1,2,3-triazol-1-yl)-1-thio-β-D-galactopyranoside] |  | 
0.55 µM | 0.35 µM | OC[C@H]1O[C@@H](S[C@@H]2CCC[C@H](n3cc(-c4ccsc4)nn3)[C@H]2O)[C@H](O)[C@@H](n2cc(-c3ccsc3)nn2)[C@H]1O [Compound 18, ((1R,2R,3S)-2-hydroxy-3-(4-(3-thiopheneyl)-1H-1,2,3-triazol-1-yl)-cyclohexyl) 3-deoxy-3-(4-(3-thienyl)-1H-1,2,3-triazol-1-yl)-1-thio-β-D-galactopyranoside] |  | 
0.19 µM | 1.3 µM | CCCNC(=O)c1cn(C2CCC[C@@H](S[C@@H]3OC(CO)[C@H](O)[C@H](n4cc(C(=O)NCCC)nn4)C3O)C2O)nn1 (stereo partly drawn) [Compound 19, ((1R,2R,3S)-2-hydroxy-3-(4-(propylcarbamoyl)-1H-1,2,3-triazol-1-yl)-cyclohexyl)-3-deoxy-3-(4-(propylcarbamoyl)-1H-1,2,3-triazol-1-yl)-thio-β-D-galactopyranoside] |  | 
1.4 µM | 6.3 µM | O=C(NC1CCC[C@@H](S[C@@H]2OC(CO)[C@H](O)[C@H](NC(=O)c3ccc(Cl)cc3)C2O)C1O)c1ccc(Cl)cc1 (stereo partly drawn) [Compound 23, ((1R,2R,3S)-2-hydroxy-3-(4-chlorobenzamido)-cyclohexyl)-3-deoxy-3-(4-chlorobenzamido)-thio-β-D-galactopyranoside] |  | 
 |  | O=C[C@H](O)[C@@H](O)[C@@H](O)[C@H](O)CO [D-galactose] | 50-100 times lower | 
 |  | OC[C@H]1O[C@@H](O[C@H]2[C@H](O)[C@@H](O)C(O)O[C@@H]2CO)[C@H](O)[C@@H](O)[C@H]1O (some centres unmarked) [lactose] |  | 500 to 1000 µM
